Results as given in patent US8222247B2, “Modulators of glucocorticoid receptor, AP-1, and/or NF-kappabeta activity and use thereof” (Bristol-Myers Squibb Company, priority 2006, dated 2012).

Tests used:
[1] = target: T1, human glucocorticoid receptor (Homo sapiens, UniProt P04150); assay: Glucocorticoid Receptor Binding Assay (I), fluorescence polarization competitor kit; conditions: purified human recombinant full-length GR, Fluormone GS Red
T1 construct: purified human recombinant full-length glucocorticoid receptor (2 nM); purchased Invitrogen Part #2893
T1 sequence (P04150 1-777): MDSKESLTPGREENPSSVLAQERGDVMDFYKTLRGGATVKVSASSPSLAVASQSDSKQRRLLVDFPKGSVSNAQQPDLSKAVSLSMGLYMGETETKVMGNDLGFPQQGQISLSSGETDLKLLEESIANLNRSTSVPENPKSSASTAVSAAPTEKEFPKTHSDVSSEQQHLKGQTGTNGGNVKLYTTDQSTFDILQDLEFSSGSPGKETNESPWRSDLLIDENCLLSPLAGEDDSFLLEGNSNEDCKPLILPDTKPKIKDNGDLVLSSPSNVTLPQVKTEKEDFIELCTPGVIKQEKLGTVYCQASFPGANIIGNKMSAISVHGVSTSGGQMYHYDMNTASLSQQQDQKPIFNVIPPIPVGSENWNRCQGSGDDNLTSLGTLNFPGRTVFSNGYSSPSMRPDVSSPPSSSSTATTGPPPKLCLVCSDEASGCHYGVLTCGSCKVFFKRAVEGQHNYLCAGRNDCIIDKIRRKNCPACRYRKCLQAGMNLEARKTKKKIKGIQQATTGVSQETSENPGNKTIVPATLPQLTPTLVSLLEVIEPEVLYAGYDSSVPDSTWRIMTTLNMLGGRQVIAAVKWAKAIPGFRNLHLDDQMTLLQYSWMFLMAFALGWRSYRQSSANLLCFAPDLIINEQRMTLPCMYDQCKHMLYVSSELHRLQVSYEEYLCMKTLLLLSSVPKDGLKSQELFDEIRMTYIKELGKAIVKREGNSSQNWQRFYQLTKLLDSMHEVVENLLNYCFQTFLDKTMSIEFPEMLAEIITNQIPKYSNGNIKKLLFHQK
Method in brief: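 Fluorescence polarization competition of purified recombinant full-length human GR (2 nM) with 1 nM Fluormone GS Red, incubated 2 h at room temperature in the dark. Normalized to vehicle (0%) and 5 μM dexamethasone (100%) as % relative binding activity. Compounds tested 8.5E-05 to 5 μM.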

[2] = target: T2, human full-length glucocorticoid receptor (Homo sapiens, UniProt P04150); assay: Glucocorticoid Receptor Binding Assay (II), fluorescence polarization competitor kit; conditions: 1 h, % Relative Binding Affinity to dexamethasone, read-out: GR (% RBA* @ 10 μM) (GR Binding Assay (II)b)
T2 construct: recombinantly expressed human full-length glucocorticoid receptor; purchased PanVera Co., Madison, Wis; P2816
T2 sequence (P04150 1-777): T1 sequence (P04150 1-777)
Method: Glucocorticoid Receptor Binding Assay (II)^b
In order to measure the binding of compounds on the glucocorticoid receptor a commercially available kit was used (Glucocorticoid receptor competitor assay kit, PanVera Co., Madison, Wis., P2816). Briefly, a cell lysate containing recombinantly expressed human full-length glucocorticoid receptor was mixed with a fluorescently labeled glucocorticoid (1 nM Fluormone GS1) in the presence or absence of test compound. After one hour at room temperature, the fluorescence polarization (FP) of the samples were measured. The FP of a mixture of receptor, fluorescent probe (i.e. Fluormone GS1) and 1 mM dexamethasone represented background fluorescence or 100% inhibition, whereas, the FP of the mixture without dexamethasone was taken to be 100% binding. The percentage inhibition of test molecules were then compared to the sample with 1 mM dexamethasone and expressed as % relative binding activity with dexamethasone being 100% and no inhibition is 0%. Test molecules were analyzed in the concentration range from 2.4 nM to 40 microMolar.

SMILES	Ki [1] [nM]	percent relative binding activity vs dexamethasone at 10 µM [2] [%]
CC(C)(C(=O)Nc1nncs1)C(c1cccc(F)c1)c1ccc(N2CCOCC2)s1 (stereo not shown) [Example 9, 3-(3-fluorophenyl)-2,2-dimethyl-3-(5-(4-morpholinyl)-2-thienyl)-N-1,3,4-thiadiazol-2-ylpropanamide]	24.6	49.7
CC(C)(C(=O)Nc1nncs1)C(c1ccccc1)c1ccc(N2CCC(O)CC2)nc1 (stereo not shown) [Example 17, 3-(6-(4-hydroxy-1-piperidinyl)-3-pyridinyl)-2,2-dimethyl-3-phenyl-N-1,3,4-thiadiazol-2-ylpropanamide]	–	112
CC(C)(C(=O)Nc1nccs1)C(c1ccc(N2CCOCC2)cc1)c1cccs1 (stereo not shown) [Example 12, 2,2-dimethyl-3-(4-(4-morpholinyl)phenyl)-N-1,3-thiazol-2-yl-3-(2-thienyl)propanamide]	–	6.1
